The values below come from PMC12321279, “Novel 4,5‐Dihydrothiazole‐Phenylpiperazine Derivatives: Synthesis, Docking Studies and Pharmacological Evaluation as Serotonergic Agents” (Chemmedchem, 2025).

The target in test [1] is T1, 5‐HT2A receptor (Rattus norvegicus, UniProt P14842). Description: 5‐HT2A competition binding assay ([3H]ketanserin, frontal cortex membranes). On the set-up: from tissue; host or cells: rat (Sprague-Dawley) frontal cortex membranes. Conditions: 1 nM [3H]ketanserin, 95% CI in brackets, read-out: 5‐HT2A Ki (95% CI).
T1 sequence (P14842 whole entry): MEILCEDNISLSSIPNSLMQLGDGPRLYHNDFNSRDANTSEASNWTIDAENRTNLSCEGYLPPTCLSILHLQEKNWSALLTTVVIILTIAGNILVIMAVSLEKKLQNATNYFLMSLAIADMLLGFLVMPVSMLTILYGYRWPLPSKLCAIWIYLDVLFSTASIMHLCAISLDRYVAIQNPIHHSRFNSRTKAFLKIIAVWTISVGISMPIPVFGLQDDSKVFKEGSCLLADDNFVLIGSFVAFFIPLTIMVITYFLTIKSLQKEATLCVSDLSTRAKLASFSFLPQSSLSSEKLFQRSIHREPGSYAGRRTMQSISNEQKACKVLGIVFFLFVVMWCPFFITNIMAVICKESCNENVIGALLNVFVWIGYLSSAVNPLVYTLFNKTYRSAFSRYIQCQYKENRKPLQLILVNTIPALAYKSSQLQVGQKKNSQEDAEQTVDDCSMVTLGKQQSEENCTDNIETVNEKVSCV
Test [2] concerns the target T2, 5‐HT1A receptor (Rattus norvegicus, UniProt P19327).
T2 construct: 80 μg of hippocampal membrane suspension (the 5‐HT1A assay); from tissue; host or cells: rat (Sprague-Dawley) hippocampus membranes
T2 sequence (P19327 1-422): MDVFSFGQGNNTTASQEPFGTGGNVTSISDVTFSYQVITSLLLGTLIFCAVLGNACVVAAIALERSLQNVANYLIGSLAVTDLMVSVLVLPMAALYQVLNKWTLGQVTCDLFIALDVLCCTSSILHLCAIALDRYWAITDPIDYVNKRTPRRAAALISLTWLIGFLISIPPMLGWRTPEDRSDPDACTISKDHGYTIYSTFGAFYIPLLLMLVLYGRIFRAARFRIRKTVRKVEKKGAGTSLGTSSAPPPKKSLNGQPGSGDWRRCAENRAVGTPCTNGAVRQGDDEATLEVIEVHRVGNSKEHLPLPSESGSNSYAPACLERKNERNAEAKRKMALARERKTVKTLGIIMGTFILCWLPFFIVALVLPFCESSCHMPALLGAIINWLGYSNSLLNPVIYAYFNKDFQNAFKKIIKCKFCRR
The test can be described thus: 5‐HT1A receptor activation in the [35S]GTP‐γ‐S assay (hippocampal membranes). The conditions noted are these: [35S]GTPγS; for EC50: read-out: EC50 (95% CI, μM), 5‐HT1A receptor G‐protein stimulation. The format is biochemical. As to the method:
Seven compound concentrations equally spaced on a log scale (10–4 M to 10–10 M) were incubated in duplicate with hippocampal membrane preparations (5μg per well) in assay buffer (50 mM Tris‐HCl, pH = 7.4, 1 mM EGTA, 3 mM MgCl2, 100 mM NaCl, and 30 μM GDP) and 0.08 nM [^35S]GTP‐γ‐S (specific activity: 1250 Ci mmole^−1, Revvity). Nonspecific binding was determined with 10μM of unlabeled GTP‐γ‐S. The final DMSO concentration in the assay was 5%. The reaction mixture was incubated for 90 min. at 30 °C on an orbital shaker set at 250 rpm. Next, the reaction mixture was deposited under vacuum with the FilterMate Harvester (Revvity, USA) onto Unifilter GF/C Plates (Revvity, MA, USA) presoaked with wash buffer (50 mM Tris‐HCl, pH = 7.4). The wells were then rapidly washed with 2 mL of wash buffer. Filter plates were dried overnight at room temperature. Once completely dry, 35 μl of MicroScint PS (Revvity, MA, USA) scintillation fluid was added to each well. Radioactivity was counted in a MicroBeta2 LumiJet scintillation counter (Revvity, MA, USA). Data were analyzed with GraphPad Prism 5.0 software (GraphPad Software, San Diego California USA, www.graphpad.com). The curves were fitted with three‐parameter non‐linear regression model.
In general terms: GTPγS resists hydrolysis and so accumulates on activated G proteins.

The target in test [3] is T1, 5‐HT2A receptor. Description: Inhibition of 5‐HT‐evoked contractions in isolated rat ileum. Conditions: 5‐HT 10^−5 M, compounds 10^−8–10^−5 M; for IC50: IC50, inhibition of 5‐HT‐induced contractions in the rat ileum, contact time 10 min; for Emax: read-out: EMAX, maximal inhibitory effect on 5‐HT‐induced contractions in the rat ileum. Details: segments (1–1.5 cm) of ileum were removed, flushed of luminal contents, and placed in Krebs solution; from tissue; host or cells: isolated rat (Sprague-Dawley) ileum segments. As to the method:
Male rats (Sprague‐Dawley, 160–200 g; Charles River Laboratories; Calco, Italy) were manipulated and cared for in strict compliance with the principles of laboratory animal care. Experimental procedures were conducted in conformity with Italian (D.L. 26/2014) and European (directive 2010/63/EU) regulations on the protection of animals used for scientific purposes and approved by the Italian Ministry. Animal housing complied with recent pharmacological guidance.^[ [40] ^] All animals weighing 160–200 g were used after a 1‐week acclimation period (temperature 23 ± 2 °C; humidity 60%, free access to water and standard food).
The segments were prepared as previously described:^[ [41] ^] the segments were set up in such a way as to record contractions mainly from the longitudinal axis, in an organ bath containing 20 mL of Krebs solution, bubbled with 95% O2 and 5% CO2 and maintained at 37 °C. The tissues were connected to an isotonic transducer (load: 0.5 g), connected to Power Lab system (Ugo Basile, Comerio, Italy). Ileal segments were equilibrated for 60 min^[ [16] ^] followed by three repeated additions of submaximal concentration of 5‐HT (10^−5 M) in order to record stable control contractions. […] The contact time for each concentration was 10 min. The compounds were dissolved in DMSO. […] Results are expressed as mean (SEM). […] The IC50 and Emax values were calculated with the aid of a computer program (GraphPad Prism 5).

Another test addresses T3, 5‐HT2C receptor (Rattus norvegicus, UniProt P08909).
T3 construct: 10 μM pargyline and 160μg of the frontal cortex membrane suspension; from tissue; host or cells: rat (Sprague-Dawley) frontal cortex membranes
T3 sequence (P08909 33-460): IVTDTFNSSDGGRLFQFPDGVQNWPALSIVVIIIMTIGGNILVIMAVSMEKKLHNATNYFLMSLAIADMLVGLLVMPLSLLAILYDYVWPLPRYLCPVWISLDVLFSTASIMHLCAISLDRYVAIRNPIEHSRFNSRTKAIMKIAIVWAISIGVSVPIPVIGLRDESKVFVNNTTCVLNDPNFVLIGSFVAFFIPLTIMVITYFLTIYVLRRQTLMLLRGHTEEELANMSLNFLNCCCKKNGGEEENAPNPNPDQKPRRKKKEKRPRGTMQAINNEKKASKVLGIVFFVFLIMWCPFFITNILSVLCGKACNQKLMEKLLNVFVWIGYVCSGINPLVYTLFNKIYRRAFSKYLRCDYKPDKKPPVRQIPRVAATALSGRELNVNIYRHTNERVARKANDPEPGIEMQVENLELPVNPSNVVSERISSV
Description: 5‐HT2C competition binding assay ([3H]mesulergine, frontal cortex membranes). Conditions: 5 nM [3H]mesulergine, 95% CI in brackets, read-out: 5‐HT2C Ki (95% CI). Here is the method:
(§1) Sprague‐Dawley rats were sacrificed by isoflurane overdose. Brains were rapidly removed and placed on ice. Hippocampi (for the 5‐HT1A assay) and frontal cortices (for the 5‐HT2A and 5‐HT2C assays) were dissected on a Petri dish. The tissue from 10 rats was homogenized in 30 vol. homogenization buffer (50 mM Tris–HCl, […], 1 mM EDTA, 1 mM dithiothreitol) with a handheld Teflon‐glass homogenizer. The homogenate was centrifuged at 48,000 × g at 4 °C for 15 min. The pellet was suspended and homogenized in the homogenization buffer and incubated for 10 min. at 36 °C. The centrifugation and suspension steps were repeated twice. The final pellet was homogenized in 5 vol. 50 mM Tris–HCl, pH = 7.4 buffer and stored at −80 °C for no longer than 6 months. […] For the 5‐HT2C assay, compounds were incubated in duplicate with 5 nM [^3H]mesulergine (specific activity: 80.2 Ci mmol^−1, Revvity, MA, USA) for 60 min. at 36 °C in a 50 mM Tris‐HCl (pH 7.4) buffer, supplemented with 5 mM MgCl2, 140 mM NaCl, 1 mM DTT, 1 mM CaCl2, 10 μM pargyline and 160μg of the frontal cortex membrane suspension. Non‐specific binding was determined with 10μM serotonin. The final DMSO concentration in the assay was 5%. After incubation, the reaction mixture was deposited onto Unifilter GF/C plates (Revvity, MA, USA) presoaked in 0.4% PEI (or 0.4% PEI and 0.5% Triton X‐100 for the 5‐HT2C assay) for 1 h with the FilterMate‐96 Harvester (Revvity, MA, USA). Then, each well was washed with 2 mL of 50 mM Tris–HCl (pH 7.4) buffer to separate bound ligands from free and the plates were left to dry overnight. Then, 35μl of Microscint‐20 scintillation fluid (Revvity, MA, USA) was added to each filter well and left to equilibrate for 2h. Filter‐bound radioactivity was counted in a MicroBeta2 LumiJet scintillation counter (Revvity, MA, USA). Binding curves were fitted with one site non‐linear regression. Binding affinity (pKi and Ki) for each compound was calculated from the […] values with the Cheng‐Prusoff equation from two separate experiments.

In test [4] the target is T2, 5‐HT1A receptor. Description: 5‐HT1A competition binding assay ([3H]8‐OH‐DPAT, hippocampal membranes). The conditions noted are these: 1 nM [3H]8‐OH‐DPAT, 95% CI in brackets, read-out: 5‐HT1A Ki (95% CI). Here is the method: as §1
Where [5] appears, read: rat hippocampal membranes, 95% CI in brackets.

“And” between values parts separate entries of the source, which are not always exact repeats. Equal entries are not always repeated.

On to `O=C(NCCCN1CCN(c2cccc(C3=NCCS3)c2)CC1)C1CC2C=CC1C2` (stereo not drawn) [FG‐14, Exo‐N‐(3‐(4‐(3‐(4,5‐dihydrothiazol‐2‐yl)phenyl)piperazin‐1‐yl)propyl) bicyclo [2.2.1] hept‐5‐ene‐2‐carboxamide], for which the Ki at 5‐HT2A receptor [1] came out at 430 nM; on 5‐HT2C receptor it was 72 nM; at 5‐HT1A receptor [4], 340 nM. At 5‐HT1A receptor [2] (setting [5]), the EC50 came to 23.3 µM. Also, the Emax at 5‐HT1A receptor [2] (rat hippocampal membranes, read-out: Emax (%) ± SEM, 5‐HT1A receptor G‐protein stimulation) was found to be 133 ± 5.7%. Also, the “EMAX, maximal inhibitory effect on 5‐HT‐induced contractions in the rat ileum” value on 5‐HT2A receptor [3] was determined as 22.48%. Further, the concentration for half-maximal inhibition (IC50) against 5‐HT2A receptor [3] was determined as 2590 nM.

Turning to `O=C(NCCCN1CCN(c2ccccc2C2=NCCS2)CC1)C1CC2C=CC1C2` (stereo not drawn) [FG‐16, Endo‐N‐(3‐(4‐(2‐(4,5‐dihydrothiazol‐2‐yl)phenyl)piperazin‐1‐yl)propyl) bicyclo[2.2.1] hept‐5‐ene‐2‐carboxamide], the Ki was 1370 nM on 5‐HT2A receptor [1]; 4830 nM on 5‐HT2C receptor; 25 nM and 25.1 nM on 5‐HT1A receptor [4]. The “Emax (%) ± SEM, 5‐HT1A receptor G‐protein stimulation” value (shortened to “Emax (%) ± SEM”) on 5‐HT1A receptor [2] (rat hippocampal membranes) is 127 ± 3.2%. The EC50 on 5‐HT1A receptor [2] (setting [5]) is 41 µM. Moreover, on 5‐HT2A receptor [3], the Emax turned out to be 39.1%. In addition, the concentration for half-maximal inhibition (IC50) against 5‐HT2A receptor [3] worked out at 6350 nM.

With `O=C(NCCCN1CCN(c2cccc(C3=NCCS3)c2)CC1)C1CC2C=CC1C2` (stereo not drawn) [FG‐17, Endo‐N‐(3‐(4‐(3‐(4,5‐dihydrothiazol‐2‐yl)phenyl)piperazin‐1‐yl)propyl) bicyclo[2.2.1]hept‐5‐ene‐2‐carboxamide], the Ki on 5‐HT2A receptor [1] is 6060 nM; at 5‐HT2C receptor it was 1660 nM; on 5‐HT1A receptor [4], 823 nM. For the same compound, the “Emax (%) ± SEM” value at 5‐HT1A receptor [2] (rat hippocampal membranes) was found to be 134 ± 2.5%. For the same compound, the half-maximal effective concentration (EC50) on 5‐HT1A receptor [2] (setting [5]) was 21.1 µM. Further, the Emax at 5‐HT2A receptor [3] was found to be 25%. Further, on 5‐HT2A receptor [3], 1250 nM corresponded to half-maximal inhibition (IC50).

Regarding `O=C1C2C3C=CC(O3)C2C(=O)N1OCCCN1CCN(c2cccc(C3=NCCS3)c2)CC1` (stereo not drawn) [FG‐11, 2‐(3‐(4‐(3‐(4,5‐dihydrothiazol‐2‐yl) phenyl) piperazin‐1‐yl) propoxy)‐3a,4,7,7a‐tetrahydro‐1H‐4,7‐epoxyisoindole‐1,3(2H)‐dione], the Ki at 5‐HT2A receptor [1] amounted to 1480 nM. In addition, at 5‐HT1A receptor [2] (rat hippocampal membranes), the “Emax (%) ± SEM” value is listed as “No activity” and the “pEC50, 5‐HT1A receptor G‐protein stimulation” value is on record as “No activity”. Besides, the “EC50 (95% CI, μM), 5‐HT1A receptor G‐protein stimulation” value at 5‐HT1A receptor [2] (setting [5]) is reported as “No activity”. In addition, at 5‐HT1A receptor [2] (efficacy compared with 8‐OH‐DPAT), the “agonist activity for the 5‐HT1A receptor (classification in words)” value is recorded as “do not express any agonist activity”. In addition, on 5‐HT2A receptor [3], the maximum response (Emax) came out at 28.7% and the midpoint of inhibition, the IC50, lay at 4390 nM. The Ki at 5‐HT2C receptor stood at 40500 nM. For the same compound, on 5‐HT1A receptor [4], the Ki was 2200 nM.

The Ki is a measure of affinity in units of concentration, obtained from inhibition or displacement. For orientation: EC50 means the concentration giving half of the maximal effect. One may read the Emax as the maximal effect, on the per cent scale that the assay sets. What is called IC50 is the point on the concentration scale where inhibition reaches its midpoint. Read a low IC50 as higher potency.
